Holding throughout (format): in vivo
For assay [1], the system named is Spodoptera littoralis (Egyptian cotton leaf worm). Briefly: Biological comparison c): insecticidal activity against Spodoptera littoralis, larvicide L-3, feeding/contact, soybean plants. The note with it: 120 h, 5 days after infestation, L3 larvae; for mortality at 0.05 ppm: Concentration 0.05 ppm; for mortality at 0.2 ppm: Concentration 0.2 ppm; for mortality at 0.8 ppm: Concentration 0.8 ppm; for mortality at 3 ppm: Concentration 3 ppm; for mortality at 12.5 ppm: Concentration 12.5 ppm. The source says:
c) Insecticidal activity against Spodoptera littoralis (Egyptian cotton leaf worm): (larvicide L-3, feeding/contact) Soybean plants are sprayed with diluted test solutions in an application chamber. The plants (2 replicates) are infested with 10 L3 larvae 1 day after treatment. Samples are checked 5 days after infestation for mortality, feeding behavior, and growth regulation.

In assay [2] the test system is Diabrotica balteata (Corn root worm). Briefly: Biological comparison a): insecticidal activity against Diabrotica balteata, maize sprouts. As to conditions: 96 h, 4 days after infestation. An excerpt: (§1) The pesticidal/insecticidal properties of the compounds according to embodiments 1 or 2 can be illustrated via the following tests: Spodoptera littoralis (Egyptian cotton leaf worm) • Cotton leaf discs were placed onto agar in 24-well microtiter plates and sprayed with aqueous test solutions prepared from 10'000 ppm DMSO stock solutions. After drying the leaf discs were infested with five L1 larvae. […] Plutella xylostella (Diamond back moth): 24-well microtiter plates with artificial diet were treated with aqueous test solutions prepared from 10'000 ppm DMSO stock solutions by pipetting. After drying, the plates were infested with L2 larvae (10 to 15 per well). The samples were assessed for mortality and growth inhibition in comparison to untreated samples 5 days after infestation. […] Diabrotica balteata, (Corn root worm) • Maize sprouts placed onto an agar layer in 24-well microtiter plates were treated with aqueous test solutions prepared from 10'000 ppm DMSO stock solutions by spraying. After drying, the plates were infested with L2 larvae (6 to 10 per well). […] Thrips tabaci (Onion thrips): Sunflower leaf discs were placed on agar in 24-well microtiter plates and sprayed with aqueous test solutions prepared from 10'000 ppm DMSO stock solutions. After drying the leaf discs were infested with a thrips population of mixed ages. The samples were assessed for mortality 6 days after infestation. […] Tetranychus urticae (Two-spotted spider mite): Bean leaf discs on agar in 24-well microtiter plates were sprayed with aqueous test solutions prepared from 10'000 ppm DMSO stock solutions. After drying the leaf discs were infested with a mite population of mixed ages. The samples were assessed for mortality on mixed population (mobile stages) 8 days after infestation. […] Euschistus heros (Neotropical Brown Stink Bug): • Two weeks old soybean plants were sprayed in a turn table spray chamber with the diluted spray solutions. After drying 2 soybean seeds were added and plants were infested with 10 N2 nymphs of the neotropical brown stink bug Euschistus heros in plastic test boxes. The samples were assessed for mortality in comparison to untreated samples 5 days after infestation. • The following compounds gave at least 80% mortality of Euschistus heros at an application rate of 12.5 ppm: Compounds 3 , 4 , 8 , 39 , 43 , 44 , 46 , 75 , 76 , 77 , 78 , 79 , 80 , 81 , 82 , 88 , 90 , 93 and 95 . Myzus persicae (Green peach aphid): Sunflower leaf discs were placed on agar in a 24-well microtiter plate and sprayed with test solutions at an application rate of 200 ppm. After drying, the leaf discs were infested with an aphid population of mixed ages. After an incubation period of 6 DAT, samples were checked for mortality. The following compounds gave at least 50% mortality of Myzus persicae: Compounds 3 , 4 , 8 , 43 , 44 , 75 , 76 , 77 , 80 , 81 , 90 and 92 . Myzus persicae (Green peach aphid): • Test compounds were applied by pipette into 24 well plates and mixed with Sucrose solution. Application rate: 12.5ppm. The plates were closed with a stretched parafilm. A plastic stencil with 24 holes is placed onto the plate and infested pea seedlings were placed directly on the Parafilm. The infested plate is closed with a gel blotting paper and another plastic stencil and then turned upside down. […]

The test system of assay [3] is Spodoptera littoralis (Egyptian cotton leaf worm). Briefly: Spodoptera littoralis cotton leaf disc spray test, L1 larvae. The note with it: foliar, 72 h, application rate of 200 ppm, 3 days after infestation, L1 larvae, read-out: mortality. The essentials: (§2)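 Leaf discs on agar sprayed with aqueous dilutions of 10'000 ppm DMSO stocks, then infested after drying: Myzus persicae (sunflower, 200 ppm, mixed ages), mortality at 6 DAT; Thrips tabaci (sunflower, mixed ages), mortality at 6 days; Tetranychus urticae (bean, mixed ages), mobile-stage mortality at 8 days; Spodoptera littoralis (cotton), five L1 larvae per disc.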

For assay [4], the system named is Thrips tabaci (Onion thrips). Briefly: Thrips tabaci sunflower leaf disc spray test. As to conditions: foliar, 144 h, application rate of 200 ppm, mortality 6 days after infestation, mixed ages. The essentials: as §2
For assay [5], the system named is Tetranychus urticae (Two-spotted spider mite). Briefly: Tetranychus urticae bean leaf disc spray test. The note with it: foliar, 192 h, application rate of 200 ppm, mortality on mixed population (mobile stages) 8 days after infestation. The essentials:
as §2

Assay [6] relates to Myzus persicae (Green peach aphid). Briefly: Myzus persicae sucrose solution / Parafilm feeding test. As to conditions: 120 h, Application rate: 12.5ppm, sucrose solution, 5 days after infestation, read-out: mortality of Myzus persicae.
For assay [7] the test system is unchanged. Briefly: Myzus persicae sunflower leaf disc spray test. As to conditions: foliar, 144 h, application rate of 200 ppm, leaf disc spray, 6 DAT, read-out: mortality of Myzus persicae.
Source text: as §1

The subject of assay [8] is Plutella xylostella (Diamond back moth). Briefly: Plutella xylostella artificial diet test, L2 larvae. The note with it: 120 h, application rate of 200 ppm, mortality and growth inhibition 5 days after infestation. In short, it runs like this: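 Artificial diet in 24-well microtiter plates was treated by pipetting with aqueous test solutions made from 10'000 ppm DMSO stock solutions. Once dry, each well received 10 to 15 second-instar (L2) Plutella xylostella larvae. Mortality and growth inhibition were scored against untreated samples 5 days after infestation.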

The test system of assay [9] is Euschistus heros (Neotropical Brown Stink Bug). Briefly: Euschistus heros soybean plant spray test, N2 nymphs. The note with it: 120 h, application rate of 12.5 ppm, 5 days after infestation, N2 nymphs, read-out: mortality of Euschistus heros.
Assay [10] relates to Diabrotica balteata, (Corn root worm). Briefly: Diabrotica balteata maize sprout spray test, L2 larvae. As to conditions: 96 h, application rate of 200 ppm, 4 days after infestation, L2 larvae, read-out: mortality. The essentials: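 Test solutions in water, made from DMSO stock solutions at 10'000 ppm, were sprayed onto maize sprouts resting on an agar layer in 24-well microtiter plates. Once the treated sprouts had dried, each well was infested with 6 to 10 second-instar (L2) Diabrotica balteata corn rootworm larvae, and mortality was then scored as percent.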

SMILES strings stand for the structures.

Usually mortality stands for the percentage killed. As to `Cn1nc(C(F)(F)C(F)(F)F)c(C(F)(F)F)c1-n1cc(-c2ccc(Cl)c(C(=O)NC3(C#N)CC3)c2)nn1` [Compound A, reference compound], in assay [1], the mortality at 0.05 ppm stood at 0%, the mortality at 0.2 ppm stood at 0%, the mortality at 0.8 ppm was determined as 0% and the mortality at 3 ppm was determined as 60%. This molecule displayed a mortality at 12.5 ppm in assay [1] of 100%. Moreover, in assay [2] (Concentration 0.195 ppm), the mortality at 0.195 ppm was 0%. In addition, the mortality at 0.781 ppm in [2] (Concentration 0.781 ppm) was determined as 0%. In [2] (Concentration 3.12 ppm), the mortality at 3.12 ppm turned out to be 100%. Besides, the mortality at 12.5 ppm in assay [2] (Concentration 12.5 ppm) amounted to 100%. The molecule further registered a mortality at 50 ppm in assay [2] (Concentration 50 ppm) of 100%.
For orientation: pest or weed control means the degree to which the test organism was suppressed or injured, in per cent. Read a low pest or weed control as weak suppression. In the case of `Cn1nc(C(F)(F)C(F)(F)F)c(C(F)(F)F)c1-c1cc(-c2ccc(Cl)c(C(=O)NC3(C#N)CC3)c2)sn1` [Compound 44, 2-chloro-N-(1-cyanocyclopropyl)-5-[3-[2-methyl-5-(1,1,2,2,2-pentafluoroethyl)-4-(trifluoromethyl)pyrazol-3-yl]isothiazol-5-yl]benzamide], the mortality at 200 ppm in assay [3] is ≥ 80%; in assay [7], ≥ 50%; in [10], ≥ 80%. For the same molecule, the pest or weed control at 200 ppm in [4], in assay [5] and in assay [8] was ≥ 80% each time. For the same molecule, the mortality at 12.5 ppm in assay [6] was ≥ 80%; in [1] it was 100%; in [9], ≥ 80%. In [1], this molecule showed a mortality at 0.05 ppm of 0%. Moreover, the mortality at 0.2 ppm in [1] came to 0%. The molecule also registered a mortality at 0.8 ppm in [1] of 50%. The same molecule had a mortality at 3 ppm in assay [1] of 95%.
